Source: patent US4550186A, “Binuclear copper (II) carboxylates formed from amine-carboxyboranes” (Duke University, priority 1983, dated 1985)

Biological target: T1, HMG CoA Reductase (Mus musculus, UniProt Q01237)
T1 construct: 10% homogenates of CF1 male mouse liver; from tissue; host or cells: CF1 male mouse liver, post-mitochondrial supernatant
T1 sequence (Q01237 1-887): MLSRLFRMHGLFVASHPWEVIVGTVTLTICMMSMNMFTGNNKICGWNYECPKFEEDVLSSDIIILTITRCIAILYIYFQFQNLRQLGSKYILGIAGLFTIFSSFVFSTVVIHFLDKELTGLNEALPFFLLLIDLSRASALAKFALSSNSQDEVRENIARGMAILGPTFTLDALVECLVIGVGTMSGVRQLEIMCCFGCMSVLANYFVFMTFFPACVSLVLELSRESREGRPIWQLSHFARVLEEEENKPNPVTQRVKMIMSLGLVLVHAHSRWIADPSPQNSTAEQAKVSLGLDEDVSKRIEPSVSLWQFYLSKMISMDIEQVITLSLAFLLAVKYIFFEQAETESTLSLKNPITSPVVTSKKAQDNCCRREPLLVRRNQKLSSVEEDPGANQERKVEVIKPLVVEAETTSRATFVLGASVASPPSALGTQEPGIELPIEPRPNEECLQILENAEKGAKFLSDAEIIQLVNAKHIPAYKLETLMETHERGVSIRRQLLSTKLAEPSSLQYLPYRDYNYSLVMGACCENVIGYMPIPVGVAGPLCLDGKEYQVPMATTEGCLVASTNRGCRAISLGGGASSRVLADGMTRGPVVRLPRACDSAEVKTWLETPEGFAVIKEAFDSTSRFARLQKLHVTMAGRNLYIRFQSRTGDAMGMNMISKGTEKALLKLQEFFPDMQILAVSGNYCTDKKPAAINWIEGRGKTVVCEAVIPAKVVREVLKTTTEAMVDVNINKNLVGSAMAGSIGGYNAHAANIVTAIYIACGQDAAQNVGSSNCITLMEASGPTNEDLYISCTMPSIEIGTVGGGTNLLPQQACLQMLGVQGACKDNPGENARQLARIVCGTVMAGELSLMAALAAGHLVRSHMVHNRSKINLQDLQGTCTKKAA
Test: In vitro liver enzyme study: HMG CoA reductase
Assay type: biochemical
Conditions: in vitro CF1 liver
Experimental: In vitro enzymatic studies were determined using 10% homogenates of CF1 male mouse liver with 50-200 μM of test drugs. In vivo enzymatic studies were determined using 10% homogenates of liver from CF1 male mice obtained after administering the agents for 16 days at a dose ranging from 2.5-20 mg/kg/day intraperitoneally. The liver homogenates for both in vitro and in vivo studies were prepared in 0.25M sucrose and 0.001M (ethylenedinitrilo)tetraacetic acid. Acetyl coenzyme A synthetase and adenosine triphosphate dependent citrate lyase activities were determined spectrophotometrically at 540 nm as the hydroxylamate of acetyl coenzyme A formed after 30 min at 37° C. Mitochondrial citrate exchange was determined by the procedure of Robinson et al [Eur. J. Biochem., 216, 63 (1970)] using ^14 C-sodium bicarbonate (41 mCi/mmol) incorporated into mitochondrial ^14 C-citrate after isolating rat mitochondria (9000 g×10 min) from the homogenates. The exchanges of the ^14 C-citrate were determined after incubating the mitochondrial fraction which was loaded with labeled citrate and test drugs for 10 min. Then the radioactivity was measured in the mitochondrial and supernantant fractions in scintillation fluid and expressed as a percentage. Cholesterol side chain oxidation was determined by the method of Kritchevsky and Tepper [Artherosclerosis, 18, 93 (1973)] using (26-^14 C) cholesterol (50 mCi/mmol) and mitochondria isolated from rat liver homogenates. […] Fatty acid synthetase activity was determined by the method of Brady et al [J. Biol. Chem., 235, 3093 (1960)] using [2-^14 C] malonyl-coenzyme A (37.5 mCi/mmol) which was incorporated into newly synthesized fatty acids that were extracted with ether and counted. Acyl transferase activity was determined with glycerol-3phosphate [L-2-^3 H(N)] […] HCl and counted. Phosphatidate phosphohydrolase activity was measured as the inorganic phosphate released after 30 min from phosphatidic acid by the method of Mavis et al [J. Lipid Res., 19, 467 (1978)]. […]

For “{Cu[(CH3)3 N.BH2 CO2 ]2.(CH3)3 N.BH2 COOH} [Compound I]”, the “HMG CoA Reductase” value (50 μM) was 102 ± 8 Percent Control, the “HMG CoA Reductase” value (100 μM) was 101 ± 9 Percent Control and the “HMG CoA Reductase” value (200 μM) was 105 ± 8 Percent Control.
